Assay results taken from paper PMC12717099, “Peptidoglycan recruitment by a penicillin binding protein” (Nature Communications, 2025).

How the values were obtained:
PBP2B = experiment: 1D 1H STD NMR of SP2 with PBP2B; type: binding, E. faecalis; conditions: for STD amplification factor, 2000: protein:peptide 1:100, 2 s saturation
Excerpt: Total saturation time for STD measurements was 2 s.
Overlapped peaks were completely excluded from the analysis.

PBP5 = experiment: Bocillin FL fluorescence polarization binding competition assay; set-up: species or system Enterococcus faecium; conditions: antibiotic fixed 60 μM, PBP5 3.6 µM, Bocillin FL 30 nM, 37 °C, n = 3
Description: The assays were performed in low-volume 384-well black polystyrene assay plate (Corning, 4511), using assay buffer (100 mM Na-phosphate pH 7.0, 0.01% Triton X-100) to prevent the adsorption of Bocillin FL (Invitrogen, B13233) to the plate. Bocillin FL was dissolved in DMSO and stored as a 1 mM stock in the −20 °C freezer. Fresh working stock of Bocillin FL was made each day for the assays by diluting the stock with the assay buffer for a final concentration of 30 nM. The final concentration of PBP5 for the assays was 3.6 µM. The antibiotic, either penicillin G, ceftaroline or ceftriaxone, was added to PBP5 before the reactions were initiated by the addition of Bocillin FL. The plate was sealed with ThermalSeal RT silicone adhesive film (EXCEL Scientific, TSS-RTQ-100) to prevent evaporation during the measurements. Reaction without PBP5 (Bocillin FL only) was used as negative control. All reactions were carried out at 37 °C in a CLARIOStar plate reader (BMG Labtech) equipped with the 482 nm excitation filter, 530 nm emission filter and a dichroic filter LP504. The focal height was adjusted to 11.3 mm and the gain was set to 10 mP using the negative control. Measurements were made at 40 s intervals for up to 75 min with 100 flashes per measurement. Three replicates were made for each treatment in each run, and the experiment was repeated 3 times.

[1] = system: E. faecium D344SRF, Wild Type; type: cell-based, Enterococcus faecium; conditions: strain Wild Type; disks Ampicillin 10 μg, Penicillin 10 U, Ceftriaxone 30 μg; BHI agar, 37 °C, 24 h; n=3
Description: (§1) E. faecium strains were streaked fresh from −80 °C stored glycerol stocks onto brain heart infusion (BHI) agar plates and incubated for 18 h at 37 °C. Strains harboring the plasmid derivatives were grown under antibiotic pressure on agar plates containing kanamycin at 1500 µg/ml. A single colony was inoculated into BHI or BHI-kanamycin (1500 µg/ml) for overnight cultures (18 h).
Antibiotic disks used were manufactured by BD BBL^TM. Disk diffusion assays were performed according to the Clinical and Laboratory Standards Institute (CLSI) guidance. Overnight cultures were inoculated into 3 ml of BHI or BHI-kanamycin (1500 µg/ml) broth with a dilution of 1:100 and incubated until an OD600 of ~0.5 was reached. The OD600 was adjusted to 0.01 to get the inoculum suspension. […] The plates were incubated at 37 °C and the zones of inhibition were measured after 24 h. All experiments were conducted in triplicate.

[2] = system: E. faecium D344SRF pCWR624Δpbp5_pbp5_V5; experiment: Disk diffusion assay, pbp5_V5; type: cell-based, Enterococcus faecium; conditions: strain pbp5_V5 (Q396A_E397A); 37 °C, 24 h; n=3
Description: (§2) The synthetic genes were purchased from GeneWiz (South Plainfield, NJ). The ribosome binding site sequence AGGAGG (Shine-Dalgarno), and a string of five A’s followed by the sequence […], that corresponds to the first 15 bp found in pbp5 from E. faecium C68 were added upstream of the START codon. The terminator sequence […] was added downstream of the STOP codon. BamHI restriction sites were added to the flanking 5′ and 3′ ends. The synthetic genes were inserted into the vector pCWR624Δpbp5. This vector was derived from pCWR624[10], in which the pbp5 gene from D366 was excised by digestion with BamHI followed by re-ligation of the vector, allowing subsequent insertion of modified synthetic pbp5s into the BamHI site downstream of ftsWEfm and psr from E. faecium C68[10]. The synthetic genes were inserted in a BamHI site located downstream of psr. The proper orientation was confirmed by PCR amplification using the forward primer OR_pbp5_FOR_1 (5′-[…]-3′) and the reverse primer OR_pbp5_REV_1 (5′-[…]-3′). Plasmids were sequence verified for the specific binding site mutations. The resulting constructions were electroporated into the natural pbp5(-) mutant E. faecium D344SRF with a selection on brain heart infusion agar (BHI) plates containing kanamycin (1500 µg/ml).
as §1
Antibiotic disks used were manufactured by BD BBL^TM. Disk diffusion assays were performed according to the Clinical and Laboratory Standards Institute (CLSI) guidance. Overnight cultures were inoculated into 3 ml of BHI or BHI-kanamycin (1500 µg/ml) broth with a dilution of 1:100 and incubated until an OD600 of ~0.5 was reached. […] The plates were incubated at 37 °C and the zones of inhibition were measured after 24 h. […]

[3] = system: E. faecium D344SRF pCWR624Δpbp5_pbp5_V1; experiment: MIC by broth microdilution, pbp5_V1; type: cell-based, Enterococcus faecium; conditions: strain pbp5_V1 (N523A); 37 °C, 20 h; n=3
Description: as §2, §1
MIC determination was performed using a standard broth microdilution technique in duplicate from independent cultures. Overnight cultures were inoculated into 3 ml of BHI or BHI-kanamycin (1500 µg/ml) broth in a dilution of 1:100 and incubated until an OD600 of ~0.5 was reached. Cultures were diluted 1:1000 and inoculated into the 96-well plates with the corresponding antibiotics to be tested. Plates were incubated at 37 °C for 20 h and read by eye. […]

[4] = system: E. faecium D344SRF pCWR624Δpbp5_pbp5_V4; experiment: MIC by broth microdilution, pbp5_V4; type: cell-based, Enterococcus faecium; conditions: strain pbp5_V4 (D530A_L533A_W457A); 37 °C, 20 h; n=3
Description: as §2, with “The resulting constructions were electroporated into the natural pbp5(-) mutant E. faecium D344SRF with a selection on brain heart infusion agar (BHI) plates containing kanamycin (1500 µg/ml).” left out
MIC determination was performed using a standard broth microdilution technique in duplicate from independent cultures. […] Plates were incubated at 37 °C for 20 h and read by eye. […]

How did the “STD % to SP1” value (PBP2B; 1H DLacβ) turn out when D-Lac-L-Ala-D-iGln-L-Lys(D-iAsn) [SP2] was run?
The value was 24.9553%.

And the “STD amplification factor as fraction of highest SP1:PBP5 value” (shortened to “STD amplification factor as fraction”) (PBP2B; 1H DLacβ)?
Its value is 0.2496.

What about the “STD amplification factor, 2000” value (PBP2B; 1H DLacβ) of the same compound?
Its value is 6.715.

And the “STD % to SP1” value (PBP2B; 1H DQ2β (first listed))?
The value was 52.517%.

What about the “STD amplification factor as fraction” value (PBP2B; 1H DQ2β (first listed)) of the same compound?
The value was 0.5252.

And the “STD amplification factor, 2000” value (PBP2B; 1H DQ2β (first listed))?
Its value is 14.1315.

What about the “STD % to SP1” value (PBP2B; 1H DQ2β (second listed)) of the same compound?
Its value is 59.0483%.

What about the “STD amplification factor as fraction” value (PBP2B; 1H DQ2β (second listed)) of the same compound?
Its value is 0.5905.

And the “STD amplification factor, 2000” value (PBP2B; 1H DQ2β (second listed))?
The value was 15.8889.

And the “STD % to SP1” value (PBP2B; 1H DQ2γ)?
The value was 22.6012%.

What about the “STD amplification factor as fraction” value (PBP2B; 1H DQ2γ) of the same compound?
Its value is 0.226.

And the “STD amplification factor, 2000” value (PBP2B; 1H DQ2γ)?
Its value is 6.082.

What about the “STD % to SP1” value (PBP2B; 1H K3α) of the same compound?
The value was 41.2007%.

And the “STD amplification factor as fraction” value (PBP2B; 1H K3α)?
Its value is 0.412.

What about the “STD amplification factor, 2000” value (PBP2B; 1H K3α) of the same compound?
The value was 11.0865.

What about the “STD % to SP1” value (PBP2B; 1H K3β) of the same compound?
The value was 85.7339%.

And the “STD amplification factor as fraction” value (PBP2B; 1H K3β)?
Its value is 0.8573.

What about the “STD amplification factor, 2000” value (PBP2B; 1H K3β) of the same compound?
The value was 23.0696.

And the “STD % to SP1” value (PBP2B; 1H K3γ)?
Its value is 40.677%.

What about the “STD amplification factor as fraction” value (PBP2B; 1H K3γ) of the same compound?
The value was 0.4068.

What about the “STD amplification factor, 2000” value (PBP2B; 1H K3γ) of the same compound?
The value was 10.9455.

What about the “STD % to SP1” value (PBP2B; 1H K3δ) of the same compound?
The value was 54.3796%.

What about the “STD amplification factor as fraction” value (PBP2B; 1H K3δ) of the same compound?
The value was 0.5438.

And the “STD amplification factor, 2000” value (PBP2B; 1H K3δ)?
The value was 14.6327.

What about the “STD % to SP1” value (PBP2B; 1H K3ε) of the same compound?
The value was 13.0751%.

And the “STD amplification factor as fraction” value (PBP2B; 1H K3ε)?
Its value is 0.1308.

What about the “STD amplification factor, 2000” value (PBP2B; 1H K3ε) of the same compound?
The value was 3.518.

What about the “STD % to SP1” value (PBP2B; 1H LA1α) of the same compound?
Its value is 44.8726%.

What about the “STD amplification factor as fraction” value (PBP2B; 1H LA1α) of the same compound?
The value was 0.4487.

And the “STD amplification factor, 2000” value (PBP2B; 1H LA1α)?
The value was 12.0745.

What about the “STD % to SP1” value (PBP2B; 1H LA1β) of the same compound?
The value was 28.2398%.

What about the “STD amplification factor as fraction” value (PBP2B; 1H LA1β) of the same compound?
Its value is 0.2824.

What about the “STD amplification factor, 2000” value (PBP2B; 1H LA1β) of the same compound?
Its value is 7.599.

What about the “STD % to SP1” value (PBP2B; 1H iNα,DQ2α) of the same compound?
The value was 20.0674%.

And the “STD amplification factor as fraction” value (PBP2B; 1H iNα,DQ2α)?
The value was 0.2007.

What about the “STD amplification factor, 2000” value (PBP2B; 1H iNα,DQ2α) of the same compound?
The value was 5.4.

What about the “STD % to SP1” value (PBP2B; 1H iNβ) of the same compound?
The value was 22.5751%.

What about the “STD amplification factor as fraction” value (PBP2B; 1H iNβ) of the same compound?
Its value is 0.2258.

What about the “STD amplification factor, 2000” value (PBP2B; 1H iNβ) of the same compound?
Its value is 6.075.

What does the source list for `CO/N=C(\C(=O)N[C@@H]1C(=O)N2C(C(=O)O)=C(CSc3nc(=O)c(=O)[nH]n3C)CS[C@H]12)c1csc(N)n1` [Ceftriaxone, ceftriaxone]?
binding/inhibition of PBP5, in words (PBP5): does not bind/inhibit PBP5; binding/inhibition of PBP5, in words (PBP5; listed as ceftriaxone): does not bind; Zone Size (mm) [Range] [1]: 20 [20-26] mm; Zone Size (mm) [Range] [2]: 0 [0] mm; MIC (µg/ml) [Range] [3]: 3200 [1600-3200] µg/ml; MIC (µg/ml) [Range] [4]: 25 [25-50] µg/ml
